Measurements from PubChem BioAssay AID2060340 (Molecular Pharmacology Branch, DTP, NCI, 2025).

Test system: 349418-098-R-PDC spheroids, viability, % test/control
Test: Anticancer human tumor 349418-098-R-PDC patient-derived lung adenocarcinoma cell line growth inhibition [IpAb]
Conditions: spheroids with HUVEC and MSC; for IC50: curve of first compound; for viability, T/C: stronger effect = lower value; active = viability on the fitted dose curve at most 10% of control; inactive = the rest
How it was run: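 Combinations with ipatasertib or abemaciclib were tested on tumour spheroids holding HUVEC (25%) and MSC (15%) alongside 60% malignant cells. Top concentration was at or near clinical Cmax (10 microM if undefined), descending in half-log steps.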
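Also: spheroids exposed to compounds for 7 days.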

Cn1nccc1Nc1nccc(-c2ccn(C(CO)c3ccc(Cl)c(F)c3)c(=O)c2)n1 (stereo not given) + CC(C)NCC(C(=O)N1CCN(c2ncnc3c2C(C)CC3O)CC1)c1ccc(Cl)cc1
inactive: viability, T/C (second compound 0.1 µM, first compound 0.0316 µM) 43.3% | viability, T/C (second compound 0.1 µM, first compound 0.1 µM) 35.9% | viability, T/C (second compound 0.1 µM, first compound 0.316 µM) 33% | viability, T/C (second compound 0.1 µM, first compound 1 µM) 29.7% | viability, T/C (second compound 0.1 µM, first compound 3.16 µM) 21.5% | viability, T/C (second compound 0.1 µM, first compound 10 µM) 17.9% | viability, T/C (second compound 0.316 µM, first compound 0.0316 µM) 23.7% | viability, T/C (second compound 0.316 µM, first compound 0.1 µM) 20.2% | viability, T/C (second compound 0.316 µM, first compound 0.316 µM) 17.9% | viability, T/C (second compound 0.316 µM, first compound 1 µM) 16% | viability, T/C (second compound 0.316 µM, first compound 3.16 µM) 16% | viability, T/C (second compound 0.316 µM, first compound 10 µM) 14.6% | viability, T/C (second compound 1 µM, first compound 0.0316 µM) 10.3% | viability, T/C (second compound 1 µM, first compound 0.1 µM) 10.8% | viability, T/C (second compound 1 µM, first compound 0.316 µM) 8.91% | viability, T/C (second compound 1 µM, first compound 1 µM) 10.4% | viability, T/C (second compound 1 µM, first compound 3.16 µM) 11.8% | viability, T/C (second compound 1 µM, first compound 10 µM) 11%
< 31.6 nM: IC50 (second compound 0.1 µM) | IC50 (second compound 0.316 µM) | IC50 (second compound 1 µM) | IC50 (second compound 3.16 µM) | IC50 (second compound 10 µM)
active: viability, T/C (second compound 3.16 µM, first compound 0.0316 µM) 7.69% | viability, T/C (second compound 3.16 µM, first compound 0.1 µM) 7.5% | viability, T/C (second compound 3.16 µM, first compound 0.316 µM) 6.61% | viability, T/C (second compound 3.16 µM, first compound 1 µM) 7% | viability, T/C (second compound 3.16 µM, first compound 3.16 µM) 7.85% | viability, T/C (second compound 3.16 µM, first compound 10 µM) 8.65% | viability, T/C (second compound 10 µM, first compound 0.0316 µM) 5.18% | viability, T/C (second compound 10 µM, first compound 0.1 µM) 5.1% | viability, T/C (second compound 10 µM, first compound 0.316 µM) 4.68% | viability, T/C (second compound 10 µM, first compound 1 µM) 4.43% | viability, T/C (second compound 10 µM, first compound 3.16 µM) 5.74% | viability, T/C (second compound 10 µM, first compound 10 µM) 7%
